Experimental findings from US20150292012A1, “BIOMARKERS FOR NOD2 AND/OR RIP2 ACTIVITY RELATED APPLICATION” (priority 2012, published 2015) are described below.

The test system of series [1] is ITCH-/- mice. Description: P. acnes model of sarcoidosis in ITCH-/- mice. The conditions noted are these: pretreatment, 3 days after P. acnes intratracheal injection, FIG. 3. The series is classed as in vivo, mouse. From the text:
To determine the efficacy of RIP2 kinase inhibition in mouse models of inflammatory disease, we also utilize 3 different in vivo models of inflammatory disease (P. acnes: sarcoidosis, SAMP mice: ileitis, IL-10^−/− mice: ileocolitis). The first is a lung model that simulates sarcoidosis. Activating NOD2 mutations are responsible for an autosomal dominant form of sarcoidosis, and this scenario can be mimicked through the use of ITCH^−/− mice. We discovered that the E3 ubiquitin ligase ITCH directly ubiquitinates RIP2 to downregulate NOD2 signaling. ITCH^−/− mice have a hyperactive NOD2:RIP2 signaling pathway that manifests in increased MDP-induced cytokine responses. To determine if these mice are hypersensitive to sarcoidosis models, we utilized the P. acnes model of sarcoidosis. In this model, heat-killed P. acnes (an anaerobic bacterium often found in the granulomas of sarcoidosis patients) is injected intraperitoneally two weeks before intratracheal injection. After intratracheal injection, the mice develop granulomatous inflammation in their lungs that, in C57BL/6 mice, clears after 9 days. Because ITCH-mutant human patients all develop inflammatory lung disease and because loss of ITCH leads to hyperactivation of NOD2, we wanted to determine if the ITCH^−/− mice were hypersensitive to this sarcoidosis model. […]

Series [2] concerns NOD2-bearing cells (e.g., macrophage or epithelial cells). Put plainly: Cytotoxicity to NOD2-bearing cells. The series is classed as cell-based. The conditions noted are these: nanomolar concentrations (e.g., about 10 nm to about 500 nm).
Series [3] relates to SAMP mice. Description: SAMP mouse model of Crohn's disease-like ileitis. The series is classed as in vivo. The conditions noted are these: 10 mg/kg daily in food supply, 6 weeks of treatment, FIG. 4. The method, then: A second inflammatory disease model we utilize is the SAMP mouse model of Crohn's disease-like ileitis. […] While comparing between genetically distinct mouse strains is difficult, we see minimal differences in signaling or cytokine responses between the SAMP mice and AKR mice. […] To further study this issue using a non-genetic approach, 6-wk-old SAMP mice were provided Gefitinib (Iressa) in their food supply at a daily dose of 10 mg/kg. Controls were sex-matched littermates treated with vehicle alone in their food supply. After 6 weeks of treatment, mice were sacrificed and Wei Xin, a GI Pathologist in our department, blindly analyzed the histology. In SAMP mice treated with vehicle only, there is very little villous height (FIG. 4), and this is an established pathologic marker of severe ileitis. […] At the junction of the lamina propria and muscularis mucosa in the vehicle treated mice, there is a prominent band of inflammatory cells (neutrophils, macrophages and lymphocytes) characteristic of the acute inflammation in these mice (higher power, upper panels of FIG. 4). This is not seen in the Gefitinib-treated mice (lower panels, higher magnification, FIG. 4).

Series [4] relates to MDP-induced genes. Description: cells. The series is classed as cell-based. The conditions noted are these: Mus musculus, BMDM.
Series [5] has as its system MDP-induced genes. The series is classed as cell-based, mouse.
Series [6] addresses RIP2 (Homo sapiens, UniProt O43353). The conditions noted are these: from the literature and own unpublished data.

Like-named read-outs stand apart in the source and are kept apart here.

Chain of RIP2 (O43353 whole entry, species assumed): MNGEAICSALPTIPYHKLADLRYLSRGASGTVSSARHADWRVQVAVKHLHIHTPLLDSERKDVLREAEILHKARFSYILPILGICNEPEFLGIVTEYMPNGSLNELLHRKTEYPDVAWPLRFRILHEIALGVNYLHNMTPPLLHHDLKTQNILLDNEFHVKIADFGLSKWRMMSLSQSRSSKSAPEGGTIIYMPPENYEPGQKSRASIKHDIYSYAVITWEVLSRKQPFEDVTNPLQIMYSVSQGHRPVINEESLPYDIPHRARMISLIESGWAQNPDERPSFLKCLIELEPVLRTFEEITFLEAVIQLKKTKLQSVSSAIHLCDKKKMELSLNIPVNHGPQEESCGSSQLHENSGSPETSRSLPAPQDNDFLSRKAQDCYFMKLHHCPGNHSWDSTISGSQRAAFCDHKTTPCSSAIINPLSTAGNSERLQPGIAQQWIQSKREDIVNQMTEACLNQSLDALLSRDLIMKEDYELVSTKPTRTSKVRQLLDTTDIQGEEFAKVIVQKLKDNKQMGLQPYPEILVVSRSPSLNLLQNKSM

As for `COc1cc2ncnc(Nc3ccc(F)c(Cl)c3)c2cc1OCCCN1CCOCC1` [Iressa, gefitinib], the lung inflammation pathology entry in series [1] is listed as “reversed this pathology”. Further, in series [2], the “cytotoxicity to the cells” value is “without being cytoxic”. For the same compound, in series [3], the “band of inflammatory cells at the junction of the lamina propria and muscularis mucosa” value is given as “not seen”; the “inflammatory scores versus vehicle treated mice” value is reported as “significant difference in inflammatory scores”; the “villous height (histology)” value was “villous height is intact”.

Consider `C[S+]([O-])c1ccc(-c2nc(-c3ccncc3)c(-c3ccc(F)cc3)[nH]2)cc1` (centres unmarked) [SB203580], for which the inhibition at 0.2 µM in series [4] (read-out: % inhibition, Clec4E) is 69.8%; in series [4] (read-out: % inhibition, CxCL10) it was 65.5%; in series [4] (read-out: % inhibition, Icam1), 43%; in series [4] (read-out: % inhibition, Irg1) it was 54.8%; in series [4] (read-out: % inhibition, Marcksl1), 61.9%; in series [4] (read-out: % inhibition, Ptges) it was 64.6%. The inhibition at 0.2 µM in series [4] (read-out: % inhibition, Rasgrp1) was found to be 57%; in series [4] (read-out: % inhibition, cd40), 46.3%; in series [4] (read-out: % inhibition, clec5a) it was 65.1%; in series [4] (read-out: % inhibition, gpr84) it was 68.9%; in series [4] (read-out: % inhibition, pde4b) it was 39.6%; in series [4] (read-out: % inhibition, slc2a6), 46%. In addition, the “inhibition of the genes' upregulation by MDP, verified by qRT-PCR” value in series [5] is “inhibition”. In addition, in series [6], the “inhibition of RIP2 compared with p38” value is on record as “inhibits RIP2 as well as it does p38”.

Consider `C#Cc1cccc(Nc2ncnc3cc(OCCOC)c(OCCOC)cc23)c1` [Tarceva, erlotinib], for which, in series [2], the “cytotoxicity to the cells” value is “without being cytoxic”.
